In data set [1] the target is T1, hNTS2 (Homo sapiens, UniProt O95665). In words: Competitive radioligand binding assay, 125I-[Tyr3]-NT displacement, 1321N1 cell membranes. To be noted: ratio of Ki hNTS1 to Ki hNTS2. On the procedure: (§1) All media and additives are from Wisent (St-Bruno, QC). […] After 1 h of incubation at room temperature, the binding reaction mixture was transferred in polyethylenimine-coated 96-well-filter plates (Millipore, Billerica, MA). Reaction was terminated by filtration, and plates were washed three times with 200 μl of ice-cold binding buffer. […] Data were plotted using GraphPad Prism 8 using the One-site—Fit log (IC50) and represent the mean ± SEM of at least three separate experiments performed in triplicate.

A short description of data set [2]: Plasma stability assay (UPLC/MS). It is filed as in vitro ADME. To be noted: rat, plasma, 37°C, incubation up to 24 h. The procedure:
Rat plasma was obtained from blood by keeping the translucent phase after centrifugation at 15,000 g over 5 min. Plasma stability assay was carried out by incubating each compound at different incubation times in rat plasma at a final concentration of 0.156 mM. […] Then, 70 μl of a solution containing 10% trichloroacetic acid (TCA) and 0.5% nicotinamine, an internal standard, was added to stop the degradation by proteases. After centrifugation at 15,000 g for 30 min, supernatant was filtered through 0.22-μm filter and analyzed by UPLC/MS (Water H Class Acquity UPLC, mounted with Acquity UPLC BEH C18 column, 1.7 μm, 2.1 × 50 mm and paired to a SQ Detector 2). Compounds 1, 2, and 5 were analyzed using the mass or UV spectrum. Quantification was done by determining the area under the curve (AUC) ratio of each compound over AUC of nicotinamine for each incubation time. Data were plotted into GraphPad Prism 8 and the half-life of each compound was calculated using one-phase decay fit and represented the mean ± SEM of minimum three separate experiments.

Data set [3] concerns Sprague-Dawley rats. In words: Body temperature measurement after intrathecal injection. It is filed as in vivo. To be noted: rat; for effect on body temperature: compared to the saline-treated group; for Hypothermia ΔTemp: 30 μg/kg, i.t., change in body temperature from baseline at 60 min. From the text:
The experimental procedures in this study were approved by the Animal Care Committee of the Université de Sherbrooke (protocol n°035-18B) and were in accordance with policies and directives of the Canadian Council on Animal Care. Adult male Sprague-Dawley rats, weighing 175–225 g (Charles River laboratories, St-Constant, Québec, Canada), were maintained on a 12-h light/dark cycle with free access to food and water and were housed two per cage on Aspen shavings in a quiet room.
Rats were lightly anesthetized with isoflurane/oxygen (Baxter corporation, Mississauga, ON, Canada; 2 L/min) flow and 25 μl of each compound were injected intrathecally with a 27-G 1/2 needle (BD PrecisionGlide, USA) into the subarachnoid space between vertebrae L5 and L6. Analogs 1–14 were diluted in physiological saline at 5 mg/ml, whereas compounds 15 and 16 were diluted in DMSO. For body temperature measurement, the injected solution of these both compounds contained 6% DMSO at final concentration (30 μg/kg).
Three consecutive days prior to testing, animals were individually acclimatized to manipulations and to a thermistor probe 5 min per day. The day of the test, experiments were always performed in a quiet room and between 8:00 and 12:00 PM. to reduce any variation related to the circadian rhythm. Body temperature was measured using a thermistor probe inserted into the rectum of adult Sprague-Dawley rats. Temperatures were recorded immediately before (baseline) and each 10 min for up to 60 min following intrathecal administration of saline, vehicle (6% DMSO) or NT analogs at 30 μg/kg. Changes in body temperature (Δ body temp) from baseline were determined for each animal. Data are expressed as mean ± SEM of 5 to 20 animals per condition.
Data are expressed as mean ± standard errors of the mean (SEM). All graphs and statistical analysis were performed using GraphPad Prism 8 (GraphPad software, La Jolla, CA, USA). A two-way ANOVA followed by Bonferroni's multiple comparisons test was used to determine significant differences between drug- and vehicle-treated rats at different timepoints post-injection.

Data set [4] addresses T2, hNTS1 (Homo sapiens, UniProt P30989). To be noted: 2015, cited from earlier work.
For data set [5], the target named is T1, hNTS2. To be noted: Ki values taken from the literature (Figure 1 legend) ref Fanelli et al., 2015; Eiselt et al., 2019; read-out: Binding, Ki hNTS2; cited from earlier work.
The target of data set [6] is T2, hNTS1. In words: Competitive radioligand binding assay, 125I-[Tyr3]-NT displacement, CHO-K1 cell membranes. The procedure:
as §1

Where [7] appears, read: Ki values taken from the literature (Figure 1 legend) ref Fanelli et al., Eiselt et al., 2019, read-out: Binding, Ki hNTS1.

“Also recorded” adds a separate entry of the source. Where two headings read alike, the source gives them in different places. Numbered stars: 1 amine (or outer) side, 2 acyl side, 3 side chain; on linkers, the order of the positions; unused ones are H or OH. Square brackets hold non-standard residues; d marks the D form. Peptide text beside a SMILES is read from it. X1 = NCCCC[C@H](N)CN([C@@H](CCCCN)C(=O)[*:2])[*:1]; Ala(SiMe3) = C[Si](C)(C)C[C@H](N)C(=O)O; Dmt = Cc1cc(O)cc(C)c1C[C@H](N)C(=O)O; Tle = CC(C)(C)[C@H](N)C(=O)O

T2 sequence (P30989 whole entry): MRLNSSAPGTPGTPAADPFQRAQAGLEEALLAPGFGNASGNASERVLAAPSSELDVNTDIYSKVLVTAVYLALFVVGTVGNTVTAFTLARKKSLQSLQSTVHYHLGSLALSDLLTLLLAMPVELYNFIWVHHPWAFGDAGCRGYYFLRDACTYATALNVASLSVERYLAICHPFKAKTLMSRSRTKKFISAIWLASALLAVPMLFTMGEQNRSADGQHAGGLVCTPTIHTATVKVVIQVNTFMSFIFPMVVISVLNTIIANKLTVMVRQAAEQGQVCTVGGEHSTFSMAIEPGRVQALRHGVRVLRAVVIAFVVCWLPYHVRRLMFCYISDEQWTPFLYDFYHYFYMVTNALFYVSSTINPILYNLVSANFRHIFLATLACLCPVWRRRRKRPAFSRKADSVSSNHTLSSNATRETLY
T1 sequence (O95665 whole entry): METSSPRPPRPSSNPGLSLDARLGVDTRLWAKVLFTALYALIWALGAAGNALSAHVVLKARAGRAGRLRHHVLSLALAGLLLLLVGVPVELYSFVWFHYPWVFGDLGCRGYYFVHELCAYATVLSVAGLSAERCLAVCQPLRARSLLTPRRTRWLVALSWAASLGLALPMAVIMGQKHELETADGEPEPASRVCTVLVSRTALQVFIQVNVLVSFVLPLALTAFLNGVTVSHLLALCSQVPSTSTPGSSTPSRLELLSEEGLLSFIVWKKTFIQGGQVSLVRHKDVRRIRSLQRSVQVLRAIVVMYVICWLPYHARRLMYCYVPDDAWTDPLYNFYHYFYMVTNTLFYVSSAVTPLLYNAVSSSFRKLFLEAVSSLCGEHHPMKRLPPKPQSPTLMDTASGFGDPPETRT

A word on the half-life: it is the time in which the quantity being followed falls by half. Lower therefore signals fast loss. By Ki is commonly meant a measure of affinity in units of concentration, obtained from inhibition or displacement. In the case of `Cc1cc(O)cc(C)c1C[C@H](NC(=O)[C@@H]1CCCN1C(=O)[C@H](CCCCN)NC[C@@H](N)CCCCN)C(=O)N[C@H](C(=O)N[C@@H](CC(C)C)C(=O)O)C(C)(C)C` [Compound 16, H-Lysψ[CH2NH]Lys-Pro-Dmt-Tle-Leu-OH] (H-[X1]P[Dmt][Tle]L-OH), the NTS1/NTS2 selectivity in data set [1] came out at 79. This compound also had a half-life at 0.156 mM in data set [2] greater than 20 h. For the same compound, the “effect on body temperature” value in data set [3] (30 μg/kg i.t.) was “long-lasting hypothermia”. Also, the “Hypothermia ΔTemp” value in data set [3] was −2.0 ± 0.3 °C. Also, in data set [3] (for up to 60 min, 30 μg/kg i.t.), the temperature drop entry was “more than 2 °C”. Also, the Ki was 110 ± 2 nM in data set [4] (setting [7]) and 1.4 ± 0.5 nM in data set [5].

Consider `CC[C@H](C)[C@H](NC(=O)[C@H](Cc1ccc(O)cc1)NC(=O)[C@@H]1CCCN1C(=O)[C@H](CCCCN)NC(=O)[C@@H](N)CCCCN)C(=O)N[C@@H](C[Si](C)(C)C)C(=O)O` [Compound 3, H-Lys-Lys-Pro-Tyr-Ile-TMSAla-OH] (H-KKPYI[Ala(SiMe3)]-OH), for which the NTS1/NTS2 selectivity in data set [1] is reported as 0.1. Also, the “effect on body temperature” value in data set [3] (30 μg/kg i.t.) was “not effective in reducing the body temperature; also recorded: not effective to induce drop in body temperature”. In data set [3], the “Hypothermia ΔTemp” value was −0.07 ± 0.1 °C. Moreover, the figures for the “fold increase in affinity at NTS1” value in data set [6] (compared to 1) and in data set [6] (compared to native NT(8-13)) were 220 fold and 80 fold, respectively. Further, the Ki in data set [4] (setting [7]) was 0.018 ± 0.004 nM; in data set [4] (ref Fanelli et al., read-out: Ki NTS1), roughly 0.02 nM; in data set [5], 0.25 ± 0.07 nM.

On to `Cc1cc(O)cc(C)c1C[C@H](NC(=O)[C@@H]1CCCN1C(=O)[C@H](CCCCN)NC(=O)[C@@H](N)CCCCN)C(=O)N[C@H](C(=O)N[C@@H](CC(C)C)C(=O)O)C(C)(C)C` [Compound 15, H-Lys-Lys-Pro-Dmt-Tle-Leu-OH] (H-KKP[Dmt][Tle]L-OH), for which the NTS1/NTS2 selectivity in data set [1] is on record as 24. Moreover, the “effect on body temperature” value in data set [3] (30 μg/kg i.t.) is listed as “not effective in reducing the body temperature; also recorded: not effective to induce drop in body temperature”. The “Hypothermia ΔTemp” value in data set [3] is 0.14 ± 0.2 °C. For the same compound, the Ki in data set [4] (setting [7]) is 57 ± 6 nM; in data set [5] it was 2.4 ± 1 nM.

The values above are taken from publication PMC7291367, “Insightful Backbone Modifications Preventing Proteolytic Degradation of Neurotensin Analogs Improve NTS1-Induced Protective Hypothermia” (Frontiers in Chemistry, 2020).
